How the values were obtained:
[1] = system: Phakopsora pachyrhizi (strain with amino acid substitution F129L in the mitochondrial cytochrome b protein); test: Use Example 2: protective control of soybean rust on soybeans (PHAKPA P6), greenhouse; assay type: in vivo; details: soybean seedlings inoculated six days after treatment, % diseased leaf area; for % PHAKPA Disease level P6 at 4 ppm: 4 ppm spray; for % PHAKPA Disease level P6 at 16 ppm: 16 ppm spray
Procedure: (§1) The compound was dissolved in a mixture of acetone and/or dimethylsulfoxide and the wetting agent/emulsifier Wettol, which is based on ethoxylated alkylphenoles, in a ratio (volume) solvent-emulsifier of 99 to 1 to give a total volume of 5 ml. Subsequently, water was added to total volume of 100 ml. This stock solution was then diluted with the described solvent-emulsifier-water mixture to the final concentration given in the table below.
(§2) Leaves of potted soybean seedlings were sprayed to run-off with the previously described spray solution, containing the concentration of active ingredient as described below. The plants were allowed to air-dry. The trial plants were cultivated for six days in a greenhouse chamber at 23-27° C. and a relative humidity between 60 and 80%. Then the plants were inoculated with spores of Phakopsora pachyrhizi. The strain used contains the amino acid substitution F129L in the mitochondrial cytochrome b protein conferring resistance to Qo inhibitors. To ensure the success the artificial inoculation, the plants were transferred to a humid chamber with a relative humidity of about 95% and 23 to 27° C. for 24 hr. The trial plants were cultivated for up to 14 days in a greenhouse chamber at 23 to 27° C. and a relative humidity between 60 and 80%. The extent of fungal attack on the leaves was visually assessed as % diseased leaf area, the disease level of untreated controls was usually higher than 85%.
(§3) All test results below are given for the control of phytopathogenic fungi containing the amino acid substitution F129L in the mitochondrial cytochrome b protein conferring resistance to Qo inhibitors.

[2] = system: Phakopsora pachyrhizi (strain with amino acid substitution F129L in the mitochondrial cytochrome b protein); test: Use Example 1: protective control of soybean rust on soybeans (PHAKPA P2), greenhouse; assay type: in vivo; details: soybean seedlings inoculated 2 days after treatment, % diseased leaf area; for % PHAKPA Disease level P2 at 4 ppm: 4 ppm spray; for % PHAKPA Disease level P2 at 16 ppm: 16 ppm spray
Procedure: as §1
as §2, with “active ingredient or their mixture as described” for “active ingredient as described”, “cultivated for 2 days in” for “cultivated for six days in”, “95% and 20 to 24°” for “95% and 23 to 27°”, “20 to 24° C. for” for “23 to 27° C. for”
as §3

Compound	% PHAKPA Disease level P6 at 4 ppm [1]	% PHAKPA Disease level P6 at 16 ppm [1]	% PHAKPA Disease level P2 at 4 ppm [2]	% PHAKPA Disease level P2 at 16 ppm [2]
CO/N=C(/C(=O)OC)c1cccc(C)c1CO/N=C/c1ccccc1 [Compound 1]	90%	83%	100%	96%
CNC(=O)/C(=N/OC)c1cccc(C)c1CO/N=C/c1ccccc1 [Compound 2]	63%	15%	50%	2%
CNC(=O)/C(=N/OC)c1cccc(C)c1CO/N=C/c1ccccc1C(F)(F)F [Compound 3]	83%	21%	36%	2%
